How the values were obtained:
Format in all cases: in vivo
corn (Zea mays) = assay: Test C postemergence, visual plant response rating; settings: Test C, postemergence, 1000 g ai/ha
Excerpt: (§1) Seeds of plant species selected from barnyardgrass (Echinochloa crus-galli), kochia (Bassia scoparia), ragweed (common ragweed, Ambrosia artemisiifolia), Italian ryegrass (Lolium mutiflorum), foxtail, giant (giant foxtail, Setaria faberi), foxtail, green (green foxtail, Setaria viridis), and pigweed (Amaranthus retroflexus) were planted into a blend of loam soil and sand and treated preemergence with a directed soil spray using test chemicals formulated in anon-phytotoxic solvent mixture which included a surfactant.
(§2) At the same time, plants selected from these weed species and also wheat (Triticum aestivum), corn (Zea mays), blackgrass (Alopecurus myosuroides), and galium (catchweed bedstraw, Galium aparine) were planted in pots containing the same blend of loam soil and sand and treated with post emergence applications of test chemicals formulated in the same manner. Plants ranged in height from 2 to 10 cm and were in the one- to two-leaf stage for the postemergence treatment. Treated plants and untreated controls were maintained in a greenhouse for approximately 10 d, after which time all treated plants were compared to untreated controls and visually evaluated for injury. Plant response ratings, summarized in Table C, are based on a 0 to 100 scale where 0 is no effect and 100 is complete control. A dash (-)response means no test result.

kochia (Bassia scoparia) [1] = assay: Test C postemergence, visual plant response rating; settings: Test C, postemergence, 1000 g ai/ha
Excerpt: as §1, §2

[2] = tested on: galium (catchweed bedstraw, Galium aparine); assay: Test C postemergence, visual plant response rating; settings: Test C, postemergence, 1000 g ai/ha
Excerpt: as §1, §2

[3] = tested on: pigweed (Amaranthus retroflexus); assay: Test C postemergence, visual plant response rating; settings: Test C, postemergence, 1000 g ai/ha
Excerpt: as §1, §2

[4] = tested on: barnyardgrass (Echinochloa crus-galli); assay: Test C postemergence, visual plant response rating; settings: Test C, postemergence, 1000 g ai/ha
Excerpt: as §1, §2

[5] = tested on: foxtail, giant (giant foxtail, Setaria faberi); assay: Test C postemergence, visual plant response rating; settings: Test C, postemergence, 1000 g ai/ha
Excerpt: as §1, §2

[6] = tested on: blackgrass (Alopecurus myosuroides); assay: Test C postemergence, visual plant response rating; settings: Test C, postemergence, 1000 g ai/ha
Excerpt: as §1, §2

[7] = tested on: wheat (Triticum aestivum); assay: Test C postemergence, visual plant response rating; settings: Test C, postemergence, 1000 g ai/ha
Excerpt: as §1, §2

[8] = tested on: Italian ryegrass (Lolium mutiflorum); assay: Test C postemergence, visual plant response rating; settings: Test C, postemergence, 1000 g ai/ha
Excerpt: as §1, §2

[9] = tested on: ragweed (common ragweed, Ambrosia artemisiifolia); assay: Test C postemergence, visual plant response rating; settings: Test C, postemergence, 1000 g ai/ha
Excerpt: as §1, §2

kochia (Bassia scoparia) [10] = assay: Test C preemergence, visual plant response rating; settings: 1000 g ai/ha
Excerpt: as §1, §2

[11] = tested on: pigweed (Amaranthus retroflexus); assay: Test C preemergence, visual plant response rating; settings: 1000 g ai/ha
Excerpt: as §1, §2

[12] = tested on: barnyardgrass (Echinochloa crus-galli); assay: Test C preemergence, visual plant response rating; settings: 1000 g ai/ha
Excerpt: as §1, §2

[13] = tested on: foxtail, giant (giant foxtail, Setaria faberi); assay: Test C preemergence, visual plant response rating; settings: 1000 g ai/ha
Excerpt: as §1, §2

[14] = tested on: Italian ryegrass (Lolium mutiflorum); assay: Test C preemergence, visual plant response rating; settings: 1000 g ai/ha
Excerpt: as §1, §2

[15] = tested on: ragweed (common ragweed, Ambrosia artemisiifolia); assay: Test C preemergence, visual plant response rating; settings: 1000 g ai/ha
Excerpt: as §1, §2

## CCO/N=C(/c1c(O)cnn(C)c1=O)c1cccc2ccccc12 [Compound 225]
Corn (Zea mays)
  Corn plant response rating (0 to 100 scale): 0
Kochia (Bassia scoparia) [1]
  Kochia plant response rating (0 to 100 scale): 10
[2]
  Galium plant response rating (0 to 100 scale): 90
[3]
  Pigweed plant response rating (0 to 100 scale): 60
[4]
  Barnyardgrass plant response rating (0 to 100 scale): 10
[5]
  Foxtail, Giant plant response rating (0 to 100 scale): 20
[6]
  Blackgrass plant response rating (0 to 100 scale): 20
[7]
  Wheat plant response rating (0 to 100 scale): 0
[8]
  Ryegrass, Italian plant response rating (0 to 100 scale): 0
[9]
  Ragweed plant response rating (0 to 100 scale): 70
Kochia (Bassia scoparia) [10]
  Kochia plant response rating (0 to 100 scale): 10
[11]
  Pigweed plant response rating (0 to 100 scale): 80
[12]
  Barnyardgrass plant response rating (0 to 100 scale): 0
[13]
  Foxtail, Giant plant response rating (0 to 100 scale): 60
[14]
  Ryegrass, Italian plant response rating (0 to 100 scale): 0
[15]
  Ragweed plant response rating (0 to 100 scale): 40

## CO/N=C(/c1c(O)cnn(C)c1=O)c1cccc2ccccc12 [Compound 237]
Corn (Zea mays)
  Corn plant response rating (0 to 100 scale): 0
Kochia (Bassia scoparia) [1]
  Kochia plant response rating (0 to 100 scale): 80
[2]
  Galium plant response rating (0 to 100 scale): 100
[3]
  Pigweed plant response rating (0 to 100 scale): 90
[4]
  Barnyardgrass plant response rating (0 to 100 scale): 0
[5]
  Foxtail, Giant plant response rating (0 to 100 scale): 0
[6]
  Blackgrass plant response rating (0 to 100 scale): 10
[7]
  Wheat plant response rating (0 to 100 scale): 0
[8]
  Ryegrass, Italian plant response rating (0 to 100 scale): 10
[9]
  Ragweed plant response rating (0 to 100 scale): 30
Kochia (Bassia scoparia) [10]
  Kochia plant response rating (0 to 100 scale): 30
[11]
  Pigweed plant response rating (0 to 100 scale): 90
[12]
  Barnyardgrass plant response rating (0 to 100 scale): 0
[13]
  Foxtail, Giant plant response rating (0 to 100 scale): 60
[14]
  Ryegrass, Italian plant response rating (0 to 100 scale): 0
[15]
  Ragweed plant response rating (0 to 100 scale): 20

## CO/N=C(\c1c(O)cnn(C)c1=O)c1cccc2ccccc12 [Compound 238]
Corn (Zea mays)
  Corn plant response rating (0 to 100 scale): 0
Kochia (Bassia scoparia) [1]
  Kochia plant response rating (0 to 100 scale): 80
[2]
  Galium plant response rating (0 to 100 scale): 90
[3]
  Pigweed plant response rating (0 to 100 scale): 90
[4]
  Barnyardgrass plant response rating (0 to 100 scale): 20
[5]
  Foxtail, Giant plant response rating (0 to 100 scale): 40
[6]
  Blackgrass plant response rating (0 to 100 scale): 20
[7]
  Wheat plant response rating (0 to 100 scale): 0
[8]
  Ryegrass, Italian plant response rating (0 to 100 scale): 0
[9]
  Ragweed plant response rating (0 to 100 scale): 30
Kochia (Bassia scoparia) [10]
  Kochia plant response rating (0 to 100 scale): 30
[11]
  Pigweed plant response rating (0 to 100 scale): 100
[12]
  Barnyardgrass plant response rating (0 to 100 scale): 0
[13]
  Foxtail, Giant plant response rating (0 to 100 scale): 40
[14]
  Ryegrass, Italian plant response rating (0 to 100 scale): 20
[15]
  Ragweed plant response rating (0 to 100 scale): 90

— patent US20210045385A1, “PYRIDAZINONE-SUBSTITUTED KETOXIMES AS HERBICIDES” (FMC Corporation, priority 2018, published 2021)
